# Source: publication PMC11700832, “Small-molecule MMRi36 induces apoptosis in p53-mutant lymphomas by targeting MDM2/MDM4/XIAP for degradation” (Frontiers in Oncology, 2024)
# Molecular target: T1, MDM2 (MDM2-MDM4 RING domain heterodimer) (Homo sapiens, UniProt O15151+Q00987)
# T1 construct: RING domain heterodimers of MDM2-MDM4, co-expressed in E. coli; with MDM4 (RING domain)
# Assay: microscale thermophoresis; thermofluor (Tm […] to […] °C); in vitro ubiquitination activation
# Type: binding
# T1 sequence (Q00987 428-491 limits assumed): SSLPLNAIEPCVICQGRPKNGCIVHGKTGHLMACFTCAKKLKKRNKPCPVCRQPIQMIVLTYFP
# T1 sequence (O15151 428-490 limits assumed): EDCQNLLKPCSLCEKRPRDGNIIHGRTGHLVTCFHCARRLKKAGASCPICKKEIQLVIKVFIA
compound,measurement,value
O=C1Nc2ccc(Br)cc2C12NN=C(c1ccccc1)S2 (stereo not shown) [MMRi36],Kd,~308 nM
